Measurements from publication PMC10525445, “Antitrypanosomal Activity of 1,2,3-Triazole-Based Hybrids Evaluated Using In Vitro Preclinical Translational Models” (Biology, 2023).

Experiments:
[1] = Cytotoxicity on VERO cell monolayers (CellTiter Glo, 72 h); type: cell-based; conditions: African green monkey, VERO cell monolayers, ATP level, read-out: Cytotoxicity VERO Cells CC50
Description: (§1) VERO cells (Rio de Janeiro Cell Bank code 0245) were cultivated in RPMI 1640 medium supplemented with 10% fetal bovine serum (FBS) at 37 °C in a humidified atmosphere of 5% CO2. Confluent monolayers were dissociated with trypsin-EDTA solution (0.025%), and isolated cells were seeded on culture plates or flasks, depending on the experimental assay. The VERO cell cultures were used in cytotoxicity and phenotypic screening assays and for obtaining culture-derived trypomastigotes. The toxic effect of the triazole series was evaluated on VERO cell monolayers. After seeding for 24 hours, VERO cells were treated for 72 h at 37 °C with the 1,2,3-triazole derivatives and Bz, the reference drug, with a range of concentration from 15.62 to 500 µM. Controls were performed with a non-toxic concentration of dimethyl sulfoxide (DMSO; ≤0.1%) used in the experimental assays. Cell viability was determined by measuring ATP level using a CellTiter Glo kit. The luminescence read was performed using a Glomax microplate reader (Promega Corporation, Madison, WI, EUA). The cytotoxicity concentration 50 (CC50), the drug concentration that reduces cell viability by 50%, was calculated using linear regression. […] Cultures were exposed for 72 h to compound concentrations up to 500 µM, following the protocol mentioned above. At least 3 independent assays were performed in duplicate.

[2] = Cardiotoxic effect on 3D cardiac spheroids; type: cell-based, Swiss Webster mice; conditions: Swiss Webster, mouse, 3D cardiac spheroids of primary fetal heart muscle cells, 3D cardiac microtissue, up to 500 µM, read-out: Toxicity 3D Culture (CC50)
Description: (§2) Primary heart muscle cell cultures were obtained from fetuses of female Swiss Webster mice, as previously described. After heart removal and ventricle fragmentation, tissue fragments were dissociated in a trypsin and collagenase type II (Worthington Biochemical Corporation, Lakewood, USA) dissociation solution. For two-dimensional (2D) cultures, the isolated cardiac cells were seeded at a density of 5 × 10^4 cells/well in gelatin (0.1%)-coated 96-well white culture plates. Three-dimensional (3D) cardiac spheroids were obtained after seeding isolated heart muscle cells at a density of 2.5 × 10^4 cells/well in an agarose (1%)-coated 96-well U-bottom plate, as described in [35]. Heart muscle cells cultures were cultivated in Dulbecco’s modified Eagle medium (DMEM) supplemented with 7% FBS, 2.5 mM CaCl2, 2% embryo extract, and 1 mM L-glutamin and maintained at 37 °C in a humidified atmosphere of 5% CO2. All procedures with animals were approved by the Animal Care and Use Committee at the Oswaldo Cruz Institute (license L-017/2022).
as §1, with “The” for “VERO cells (Rio de Janeiro Cell Bank code 0245) were cultivated in RPMI 1640 medium supplemented with 10% fetal bovine serum (FBS) at 37 °C in a humidified atmosphere of 5% CO2. Confluent monolayers were dissociated with trypsin-EDTA solution (0.025%), and isolated cells were seeded on culture plates or flasks, depending on the experimental assay. The VERO cell cultures were used in cytotoxicity and phenotypic screening assays and for obtaining culture-derived trypomastigotes. The”

[3] = Cardiotoxic effect on 2D primary heart muscle cell culture; type: cell-based, Swiss Webster mice; conditions: Swiss Webster, mouse, primary fetal heart muscle cells, 2D monolayer culture, heart muscle cell monolayers, up to 500 µM, read-out: Toxicity 2D Culture (CC50)
Description: as §2
as §1, with “The” for “VERO cells (Rio de Janeiro Cell Bank code 0245) were cultivated in RPMI 1640 medium supplemented with 10% fetal bovine serum (FBS) at 37 °C in a humidified atmosphere of 5% CO2. Confluent monolayers were dissociated with trypsin-EDTA solution (0.025%), and isolated cells were seeded on culture plates or flasks, depending on the experimental assay. The VERO cell cultures were used in cytotoxicity and phenotypic screening assays and for obtaining culture-derived trypomastigotes. The”

VERO cells = experiment: Cytotoxicity on VERO cell monolayers (CellTiter Glo, 72 h); type: cell-based; conditions: ATP level
Description: as §1

[4] = test system: 3D cardiac microtissue (heart muscle cells); experiment: Cardiotoxic effect on 3D cardiac spheroids; type: cell-based, Swiss Webster mice; conditions: 72 h, up to 500 µM, read-out: Toxicity 3D Culture (CC50)
Description: as §2
as §1, with “The” for “VERO cells (Rio de Janeiro Cell Bank code 0245) were cultivated in RPMI 1640 medium supplemented with 10% fetal bovine serum (FBS) at 37 °C in a humidified atmosphere of 5% CO2. Confluent monolayers were dissociated with trypsin-EDTA solution (0.025%), and isolated cells were seeded on culture plates or flasks, depending on the experimental assay. The VERO cell cultures were used in cytotoxicity and phenotypic screening assays and for obtaining culture-derived trypomastigotes. The”

[5] = test system: heart muscle cells (2D culture); experiment: Cardiotoxic effect on 2D primary heart muscle cell culture; type: cell-based, Swiss Webster mice; conditions: heart muscle cell monolayers, 72 h, up to 500 µM; read-out: Toxicity 2D Culture (CC50)
Description: as §2
as §1, with “The” for “VERO cells (Rio de Janeiro Cell Bank code 0245) were cultivated in RPMI 1640 medium supplemented with 10% fetal bovine serum (FBS) at 37 °C in a humidified atmosphere of 5% CO2. Confluent monolayers were dissociated with trypsin-EDTA solution (0.025%), and isolated cells were seeded on culture plates or flasks, depending on the experimental assay. The VERO cell cultures were used in cytotoxicity and phenotypic screening assays and for obtaining culture-derived trypomastigotes. The”

COc1ccc(-n2cc(-c3ccccc3)nn2)cc1 [Triazole 1d, 1-(4-Methoxyphenyl)-4-phenyl-1H-1,2,3-triazole]
CC50 at 72 h [1]: > 500 µM
CC50 at 72 h [2]: > 500 µM
CC50 at 72 h [3]: > 500 µM

4-Phenyl-1-(m-tolyl)-1H-1,2,3-triazole [Triazole 1f]
CC50 (VERO cells): 86.8 ± 2.73 µM
CC50 [4]: > 500 µM
CC50 [5]: 111 ± 10.1 µM

c1ccc(-c2cn(-c3ccccc3)nn2)cc1 [Triazole 1g, 1-(4-Diphenyl)-1H-1,2,3-triazole]
CC50 at 72 h [1]: > 500 µM
CC50 at 72 h [2]: > 500 µM
CC50 at 72 h [3]: > 500 µM
